Results as given in patent US20060069132A1, “Azolecarboxamide herbicides” (priority 2004, published 2006).

What was measured:
large crabgrass = experiment: Test B pre-/postemergence herbicide test; type: in vivo, Digitaria sanguinalis; conditions: for Plant response rating (0 to 100 scale), Crabgrass, Large: 0 is no effect, 100 is complete control, preemergence; for Crabgrass, Large plant response rating: scale 0 (no effect) to 100 (complete control)
Summary of the method: (§1)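 Seeds were planted and treated preemergence with compounds formulated in a non-phytotoxic solvent mixture containing surfactant, while plants at the 1- to 4-leaf stage (2 to 18 cm) received postemergence sprays. Flooded paddy plants were grown to the 2-leaf stage. After 13 to 15 days in a greenhouse, injury was visually rated 0–100 against untreated controls.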

lambsquarters = experiment: Test B pre-/postemergence herbicide test; type: in vivo, Chenopodium album; conditions: for Plant response rating (0 to 100 scale), Lambsquarters: 0 is no effect, 100 is complete control, preemergence; for Lambsquarters plant response rating: scale 0 (no effect) to 100 (complete control)
Summary of the method: as §1

blackgrass = experiment: Test B postemergence herbicide test; type: in vivo, Alopecurus myosuroides; conditions: scale 0 (no effect) to 100 (complete control)
Summary of the method: (§2)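 Plants grow to 1- to 4-leaf stage (2–18 cm) for postemergence spraying, or to 2-leaf stage for the paddy test. Formulated compound is applied. Greenhouse holding lasts 13–15 days. Response is scored visually relative to controls, 0 no effect to 100 complete control; a dash means no result.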

[1] = system: small flower umbrella sedge; experiment: Test B flooded paddy test; type: in vivo, Cyperus difformis; conditions: 1000 g ai/ha, scale 0 to 100 (0 no effect, 100 complete control)
Summary of the method: as §2

ducksalad = experiment: Test B flooded paddy test; type: in vivo, Heteranthera limosa; conditions: 1000 g ai/ha, scale 0 to 100 (0 no effect, 100 complete control)
Summary of the method: as §2

corn = experiment: Test B pre-/postemergence herbicide test; type: in vivo, Zea mays; conditions: for Plant response rating (0 to 100 scale), Corn: 0 is no effect, 100 is complete control, preemergence; for Corn plant response rating: scale 0 (no effect) to 100 (complete control)
Summary of the method: as §1

wheat = experiment: Test B postemergence herbicide test; type: in vivo, Triticum aestivum; parameters: key to Wheat plant response rating: 0 = no effect, 100 = complete control
Summary of the method: as §2

rice = experiment: Test B flooded paddy test; type: in vivo, Oryza sativa; conditions: 1000 g ai/ha, scale 0 to 100 (0 no effect, 100 complete control)
Summary of the method: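 Visual ratings, 0 (no effect) to 100 (complete control), made versus controls after 13–15 d greenhouse. Paddy plants treated at 2-leaf stage; postemergence plants at 1- to 4-leaf stage, 2–18 cm tall.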

morningglory = experiment: Test B pre-/postemergence herbicide test; type: in vivo, Ipomoea coccinea; conditions: for Plant response rating (0 to 100 scale), Morningglory: 0 is no effect, 100 is complete control, preemergence; for Morningglory plant response rating: scale 0 (no effect) to 100 (complete control)
Summary of the method: (§3)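 Species tested were Echinochloa crus-galli, Ipomoea coccinea, Xanthium strumarium and Oryza sativa, treated both before emergence and at the 1- to 4-leaf stage; rice and barnyardgrass were also tested under flooding at 2 leaves. Greenhouse incubation lasted 13–15 days before visual 0–100 scoring.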

Surinam grass = experiment: Test B pre-/postemergence herbicide test; type: in vivo, Urochloa decumbens; conditions: for Plant response rating (0 to 100 scale), Surinam Grass: 0 is no effect, 100 is complete control, preemergence; for Surinam Grass plant response rating: scale 0 (no effect) to 100 (complete control)
Summary of the method: as §1

barnyardgrass [2] = experiment: Test B flooded paddy test; type: in vivo, Echinochloa crus-galli; conditions: 1000 g ai/ha, scale 0 to 100 (0 no effect, 100 complete control)
Summary of the method: as §2

velvetleaf = experiment: Test B pre-/postemergence herbicide test; type: in vivo, Abutilon theophrasti; conditions: for Plant response rating (0 to 100 scale), Velvetleaf: 0 is no effect, 100 is complete control, preemergence; for Velvetleaf plant response rating: scale 0 (no effect) to 100 (complete control)
Summary of the method: as §1

barnyardgrass [3] = experiment: Test B pre-/postemergence herbicide test; type: in vivo, Echinochloa crus-galli; conditions: for Plant response rating (0 to 100 scale), Barnyardgrass: 0 is no effect, 100 is complete control, preemergence; for Barnyardgrass plant response rating: scale 0 (no effect) to 100 (complete control)
Summary of the method: as §3

giant foxtail = experiment: Test B pre-/postemergence herbicide test; type: in vivo, Setaria faberi; conditions: for Plant response rating (0 to 100 scale), Foxtail, Giant: 0 is no effect, 100 is complete control, preemergence; for Foxtail, Giant plant response rating: scale 0 (no effect) to 100 (complete control)
Summary of the method: as §1

cocklebur = experiment: Test B pre-/postemergence herbicide test; type: in vivo, Xanthium strumarium; conditions: for Plant response rating (0 to 100 scale), Cocklebur: 0 is no effect, 100 is complete control, preemergence; for Cocklebur plant response rating: scale 0 (no effect) to 100 (complete control)
Summary of the method: as §3

wild oat = experiment: Test B postemergence herbicide test; type: in vivo, Avena fatua; conditions: scale 0 (no effect) to 100 (complete control)
Summary of the method: as §2

pigweed = experiment: Test B pre-/postemergence herbicide test; type: in vivo, Amaranthus retroflexus; conditions: for Plant response rating (0 to 100 scale), Pigweed: 0 is no effect, 100 is complete control, preemergence; for Pigweed plant response rating: scale 0 (no effect) to 100 (complete control)
Summary of the method: as §1

[4] = 125 g ai/ha, visual rating, postemergence
[5] = 125 g ai/ha, visual rating, scale 0 (no effect) to 100 (complete control), postemergence
[6] = 500 g ai/ha, scale 0 to 100, 0 no effect, 100 complete control, preemergence
[7] = Postemergence, 500 g ai/ha, scale 0 (no effect) to 100 (complete control)

SMILES: C=CCN(CC=C)C(=O)c1cccc(NC(=O)c2nn(C(C)C)nc2CC)c1 [Compound 390]
- Plant response rating (0 to 100 scale), Crabgrass, Large (large crabgrass; 125 g ai/ha): 10
- Crabgrass, Large plant response rating (large crabgrass; [4]): 10
- Crabgrass, Large plant response rating (large crabgrass; Postemergence, 500 g ai/ha): 20
- Plant response rating (0 to 100 scale), Lambsquarters (lambsquarters; 125 g ai/ha): 30
- Lambsquarters plant response rating (lambsquarters; [4]): 60
- Lambsquarters plant response rating (lambsquarters; Postemergence, 500 g ai/ha): 60
- Blackgrass plant response rating (blackgrass; [4]): 0
- Blackgrass plant response rating (blackgrass; Postemergence, 500 g ai/ha): 10
- Sedge, Umbrella plant response rating [1]: 60
- Ducksalad plant response rating (ducksalad): 40
- Plant response rating (0 to 100 scale), Corn (corn; 125 g ai/ha): 0
- Corn plant response rating (corn; [4]): 0
- Corn plant response rating (corn; Postemergence, 500 g ai/ha): 20
- Wheat plant response rating (wheat; [5]): 0
- Wheat plant response rating (wheat; [6]): 10
- Wheat plant response rating (wheat; [7]): 0
- Rice plant response rating (rice): 30
- Plant response rating (0 to 100 scale), Morningglory (morningglory; 125 g ai/ha): 0
- Morningglory plant response rating (morningglory; [4]): 0
- Morningglory plant response rating (morningglory; Postemergence, 500 g ai/ha): 40
- Plant response rating (0 to 100 scale), Surinam Grass (Surinam grass; 125 g ai/ha): 0
- Surinam Grass plant response rating (Surinam grass; [4]): 0
- Surinam Grass plant response rating (Surinam grass; Postemergence, 500 g ai/ha): 10
- Barnyardgrass plant response rating (barnyardgrass [2]): 0
- Plant response rating (0 to 100 scale), Velvetleaf (velvetleaf; 125 g ai/ha): 0
- Velvetleaf plant response rating (velvetleaf; [4]): 0
- Velvetleaf plant response rating (velvetleaf; Postemergence, 500 g ai/ha): 20
- Plant response rating (0 to 100 scale), Barnyardgrass (barnyardgrass [3]; 125 g ai/ha): 0
- Barnyardgrass plant response rating (barnyardgrass [3]; [4]): 0
- Barnyardgrass plant response rating (barnyardgrass [3]; Postemergence, 500 g ai/ha): 10
- Plant response rating (0 to 100 scale), Foxtail, Giant (giant foxtail; 125 g ai/ha): 0
- Foxtail, Giant plant response rating (giant foxtail; [4]): 10
- Foxtail, Giant plant response rating (giant foxtail; Postemergence, 500 g ai/ha): 30
- Plant response rating (0 to 100 scale), Cocklebur (cocklebur; 125 g ai/ha): 0
- Cocklebur plant response rating (cocklebur; [4]): 20
- Cocklebur plant response rating (cocklebur; Postemergence, 500 g ai/ha): 20
- Oat, Wild plant response rating (wild oat; [4]): 0
- Oat, Wild plant response rating (wild oat; Postemergence, 500 g ai/ha): 10
- Plant response rating (0 to 100 scale), Pigweed (pigweed; 125 g ai/ha): 0
- Pigweed plant response rating (pigweed; [4]): 50
- Pigweed plant response rating (pigweed; Postemergence, 500 g ai/ha): 60

SMILES: COC(=O)c1ccc(F)c(NC(=O)c2nn(C(C)C)nc2C)c1 [Compound 398]
- Plant response rating (0 to 100 scale), Crabgrass, Large (large crabgrass; 125 g ai/ha): 0
- Crabgrass, Large plant response rating (large crabgrass; [4]): 0
- Crabgrass, Large plant response rating (large crabgrass; Postemergence, 500 g ai/ha): 10
- Plant response rating (0 to 100 scale), Lambsquarters (lambsquarters; 125 g ai/ha): 0
- Lambsquarters plant response rating (lambsquarters; [4]): 10
- Lambsquarters plant response rating (lambsquarters; Postemergence, 500 g ai/ha): 10
- Blackgrass plant response rating (blackgrass; [4]): 0
- Blackgrass plant response rating (blackgrass; Postemergence, 500 g ai/ha): 10
- Sedge, Umbrella plant response rating [1]: 80
- Ducksalad plant response rating (ducksalad): 0
- Plant response rating (0 to 100 scale), Corn (corn; 125 g ai/ha): 0
- Corn plant response rating (corn; [4]): 0
- Corn plant response rating (corn; Postemergence, 500 g ai/ha): 20
- Wheat plant response rating (wheat; [5]): 0
- Wheat plant response rating (wheat; [6]): 0
- Wheat plant response rating (wheat; [7]): 10
- Rice plant response rating (rice): 10
- Plant response rating (0 to 100 scale), Morningglory (morningglory; 125 g ai/ha): 0
- Morningglory plant response rating (morningglory; [4]): 0
- Morningglory plant response rating (morningglory; Postemergence, 500 g ai/ha): 20
- Plant response rating (0 to 100 scale), Surinam Grass (Surinam grass; 125 g ai/ha): 0
- Surinam Grass plant response rating (Surinam grass; [4]): 10
- Surinam Grass plant response rating (Surinam grass; Postemergence, 500 g ai/ha): 10
- Barnyardgrass plant response rating (barnyardgrass [2]): 0
- Plant response rating (0 to 100 scale), Velvetleaf (velvetleaf; 125 g ai/ha): 0
- Velvetleaf plant response rating (velvetleaf; [4]): 20
- Velvetleaf plant response rating (velvetleaf; Postemergence, 500 g ai/ha): 60
- Plant response rating (0 to 100 scale), Barnyardgrass (barnyardgrass [3]; 125 g ai/ha): 0
- Barnyardgrass plant response rating (barnyardgrass [3]; [4]): 0
- Barnyardgrass plant response rating (barnyardgrass [3]; Postemergence, 500 g ai/ha): 0
- Plant response rating (0 to 100 scale), Foxtail, Giant (giant foxtail; 125 g ai/ha): 0
- Foxtail, Giant plant response rating (giant foxtail; [4]): 20
- Foxtail, Giant plant response rating (giant foxtail; Postemergence, 500 g ai/ha): 30
- Plant response rating (0 to 100 scale), Cocklebur (cocklebur; 125 g ai/ha): 0
- Cocklebur plant response rating (cocklebur; [4]): 0
- Cocklebur plant response rating (cocklebur; Postemergence, 500 g ai/ha): 10
- Oat, Wild plant response rating (wild oat; [4]): 0
- Oat, Wild plant response rating (wild oat; Postemergence, 500 g ai/ha): 0
- Plant response rating (0 to 100 scale), Pigweed (pigweed; 125 g ai/ha): 0
- Pigweed plant response rating (pigweed; [4]): 0
- Pigweed plant response rating (pigweed; Postemergence, 500 g ai/ha): 10
